# Calls of active or inactive are those of the source.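 How the source made its calls: active means tumour findings in long-term animal cancer tests in more than one sex, species or organ; inactive means no tumour finding and more than one negative test.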
# Assay: DSSTox (CPDBAS) Carcinogenic Potency Database Summary MultiCellCall Results
# Settings: animal carcinogenicity bioassays, multi-cell call summary
# Summary of the method: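 ActivityScore sums 50 for multispecies, 30 for multisex and 20 for multisite positivity. Based on the most positive experiment per sex-species across standardised chronic rodent and other animal cancer tests.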
row,Compound,outcome
1,O=S(=O)(O)c1ccc(N=Nc2cc(S(=O)(=O)O)c3ccccc3c2O)c2ccccc12,inactive; multisex inactive; multispecies inactive
2,O=C1OC(c2ccc(O)cc2)(c2ccc(O)cc2)c2ccccc21,active; multisite active; multisex active; multispecies active
3,CCN=[N+](C)[O-],active; multisite active
4,NC(=O)Cc1c([O-])on[n+]1Cc1ccccc1,active; multisex active; multispecies active
5,Cc1cc(Cl)ccc1OCC(=O)O,inactive; multisex inactive; multispecies inactive
6,O=P1(NCCCl)OCCCN1CCCl (configuration not stated),active; multisite active; multisex active; multispecies active
7,C[C@H]([C@H](O)CCC(C)(C)O)[C@H]1CC[C@@]2(O)C3=CC(=O)[C@@H]4C[C@@H](O)[C@@H](O)C[C@]4(C)[C@H]3CC[C@]12C,active; multisite active; multisex active
8,COc1ccc(N)c(C)c1,active; multisex active
9,O=C(CCl)c1ccccc1,inactive; multisex inactive; multispecies inactive
10,O=Cc1ccccc1,active; multisex active
11,CN(C)CCOc1ccc(/C(=C(/CCCl)c2ccccc2)c2ccccc2)cc1,inactive; multisex inactive
12,C=CC,inactive; multisex inactive; multispecies inactive
13,O=C1NCCN1,inactive; multisex inactive
14,O=NN(CC(=O)O)CC(=O)O,inactive; multisex inactive
15,CNc1ncnc2c1ncn2[C@@H]1O[C@H](CO)[C@@H](O)[C@H]1O,inactive; multisex inactive
16,CC(C)(C)O,active; multisite active; multisex active; multispecies active
17,CC(=O)O[C@]1(C(C)=O)CC[C@H]2[C@@H]3C=C(Cl)C4=CC(=O)[C@@H]5C[C@@H]5[C@]4(C)[C@H]3CC[C@@]21C,active; multisite active; multisex active
18,Nc1ncn([C@@H]2O[C@H](CO)[C@@H](O)[C@H]2O)c(=O)n1,active; multisite active; multisex active; multispecies active
19,CCCNN,active; multisex active
20,O=C(O)COc1cc(Cl)c(Cl)cc1Cl,inactive; multisex inactive; multispecies inactive
21,O.O.O.O.O.O.O.O.O=S(=O)([O-])[O-].O=S(=O)([O-])[O-].O=S(=O)([O-])[O-].[Cd+2].[Cd+2].[Cd+2],inactive; multispecies inactive
22,O=NO,active; multisite active; multisex active
23,CC(C)NCC(O)c1ccc2ccccc2c1 (configuration not stated),inactive; multisex inactive

row,Compound,outcome
1,CC(=O)NCc1nc(-c2ccc([N+](=O)[O-])o2)no1,active; multisite active
2,O=[N+]([O-])c1ccc(Cl)cc1,active; multisite active; multisex active
3,C=CCl,active; multisite active; multisex active; multispecies active
4,CCCCN(N=O)C(N)=O,active; multisite active; multisex active
5,CC(=O)Nc1ccc(C(=O)CCl)cc1,inactive; multisex inactive; multispecies inactive
6,C=C(C)C(=O)Nc1ccc(Cl)c(Cl)c1,inactive; multisex inactive
7,C#C[C@]1(OC(C)=O)CC[C@H]2[C@@H]3CCC4=CC(=O)CC[C@@H]4[C@H]3CC[C@@]21C,active; multisite active; multispecies active
8,O.O.O.O.O.O.O.O=S(=O)([O-])[O-].[Co+2],active; multisite active; multisex active; multispecies active
9,Cc1ccc(O)c(O)c1,active; multisex active
10,c1ccc2[nH]c(-c3cscn3)nc2c1,inactive; multisex inactive; multispecies inactive
11,C=C(C)[C@H]1CC=C(C)C(=O)C1,inactive; multisex inactive
12,CCOC(=O)N(CC)N=O,active; multisite active
13,[N-]=[N+]=O,inactive; multisex inactive
14,CC(C)O,inactive; multisex inactive; multispecies inactive
15,CC(C)(Oc1ccc(C2CC2(Cl)Cl)cc1)C(=O)O (configuration not stated),active; multisite active; multisex active; multispecies active
16,NC(=O)N(CCCO)N=O,active; multisex active
17,O=C1CCCO1,inactive; multisex inactive; multispecies inactive
18,Nc1ccc(S(=O)(=O)c2ccc(N)cc2)cc1,active; multisite active
19,CC(=O)O[C@H]1CC[C@@]2(C)C(=CC[C@@H]3[C@@H]2CC[C@]2(C)C(=O)CC[C@@H]32)C1,active; multisex active
20,CCCN(CCC)c1c([N+](=O)[O-])cc(C(F)(F)F)cc1[N+](=O)[O-],active; multisite active
21,c1ccc2c(c1)Oc1ccccc1O2,inactive; multisex inactive; multispecies inactive
22,[Cd+2].[Cl-].[Cl-],active; multisite active; multisex active
23,CN1C(=O)C[C@@H](C(=O)N[C@@H](Cc2cnc[nH]2)C(=O)N2CCC[C@H]2C(N)=O)NC1=O,inactive; multisex inactive; multispecies inactive

row,Compound,outcome
1,CC(=O)Nc1ccc(N=Nc2cc(C)ccc2O)cc1,active; multisex active; multispecies active
2,C=CCOC(=O)c1ccccc1C(=O)OCC=C,inactive; multisex inactive; multispecies inactive
3,C1CO1,active; multisite active; multisex active; multispecies active
4,CCN(CC)CCCNC(=O)Cn1ncc(-c2ccccc2)c1-c1ccccc1,inactive; multisex inactive
5,O=NN1CCN(N=O)CC1,active; multisex active
6,COc1ccc(C(Cl)=C(c2ccc(OC)cc2)c2ccc(OC)cc2)cc1,inactive; multisex inactive
7,CC(C)(C)NC[C@H](O)COc1cccc2c1CCCC2=O,inactive; multisex inactive; multispecies inactive
8,Cc1ccc(OP(=O)(Oc2ccc(C)cc2)Oc2ccc(C)cc2)cc1,inactive; multisex inactive; multispecies inactive
9,CC(C)C/C=N/N(C)C=O,active; multisite active; multisex active
10,CCCCCc1cc(O)c2c(c1)OC(C)(C)[C@@H]1CCC(C)=C[C@@H]21,inactive; multisex inactive; multispecies inactive
11,S=P(N1CC1)(N1CC1)N1CC1,active; multisite active; multisex active; multispecies active
12,Nc1cc(S(=O)(=O)[O-])cc2cc(S(=O)(=O)[O-])c(N=Nc3ccc(-c4ccc(N=Nc5c(S(=O)(=O)[O-])cc6cc(S(=O)(=O)[O-])cc(N)c6c5O)c(O)c4)cc3O)c(O)c12.[Cu].[Cu].[Na+].[Na+].[Na+].[Na+],active; multisite active; multisex active; multispecies active
13,CN(CCCC(=O)c1cccnc1)N=O,active; multisite active
14,C=CCOc1ccccc1OCC(O)CNC(C)C (configuration not stated),inactive; multisex inactive; multispecies inactive
15,c1ccoc1,active; multisite active; multisex active; multispecies active
16,CN(C)[C@@H]1C(=O)C(C(N)=O)=C(O)[C@@]2(O)C(=O)C3=C(O)c4c(O)cccc4[C@@](C)(O)[C@H]3[C@H](O)[C@@H]12,inactive; multisex inactive; multispecies inactive
17,CC(C)CCCCCCOC(=O)c1ccccc1C(=O)OCCCCCCC(C)C,active; multisite active; multisex active; multispecies active
18,O=C1O[C@H]([C@H](O)CO)C(O)=C1O,inactive; multisex inactive; multispecies inactive
19,O=C(O)CCCc1ccc(N(CCCl)CCCl)cc1,active; multisite active; multisex active; multispecies active
20,Clc1ccccc1Cl,inactive; multisex inactive; multispecies inactive
21,Cc1ccccc1,active; multisite active; multisex active
22,CCN(Cc1cccc(S(=O)(=O)O)c1)c1ccc(C(=C2C=CC(=[N+](CC)Cc3cccc(S(=O)(=O)O)c3)C=C2)c2ccccc2S(=O)(=O)[O-])cc1,inactive; multisex inactive; multispecies inactive
23,FC(Cl)(Cl)Cl,inactive; multisex inactive; multispecies inactive

row,Compound,outcome
1,OCC(CO)(CBr)CBr,active; multisite active; multisex active; multispecies active
2,c1ccc(NNc2ccccc2)cc1,active; multisite active; multisex active; multispecies active
3,O=C(O)CCC(=O)O,inactive; multisex inactive
4,CN(C)C=O,inactive; multisex inactive; multispecies inactive
5,Cc1ccc2c(-c3ccccc3)nc(=O)n(C(C)C)c2c1,inactive; multisex inactive
6,CCOc1nc2cccc(C(=O)OC(C)OC(=O)OC3CCCCC3)c2n1Cc1ccc(-c2ccccc2-c2nn[nH]n2)cc1 (configuration not stated),inactive; multisex inactive
7,C=CC(OCC)OCC,inactive; multisex inactive
8,ClC(Cl)C(Cl)(Cl)Cl,active; multisex active
9,FC(F)(F)C(Cl)Cl,active; multisite active; multisex active
10,COC(=O)C(c1ccccc1)C1CCCCN1 (configuration not stated),active; multisex active
11,COc1cc2c(c3oc(=O)c4c(c13)CCOC4=O)C1C=COC1O2 (configuration not stated),active; multisite active; multispecies active
12,N[C@@H](Cc1ccc(N(CCCl)CCCl)cc1)C(=O)O,active; multisite active; multisex active; multispecies active
13,CCOC(=O)N(C)N=O,active; multisite active
14,NC(=O)N(CCO)N=O,active; multisite active; multisex active; multispecies active
15,CC(C)C=O,inactive; multisex inactive; multispecies inactive
16,CN1C(=O)CN=C(c2ccccc2)c2cc(Cl)ccc21,inactive; multisex inactive; multispecies inactive
17,CC[C@H]1OC(=O)C[C@@H](O)[C@H](C)[C@@H](O[C@@H]2O[C@H](C)[C@@H](O[C@H]3C[C@@](C)(O)[C@@H](O)[C@H](C)O3)[C@H](N(C)C)[C@H]2O)[C@@H](CC=O)C[C@@H](C)C(=O)/C=C/C(C)=C/C1CO[C@@H]1O[C@H](C)[C@@H](O)[C@@H](OC)[C@H]1OC (some centres not stated),inactive; multisex inactive
18,Cc1cc(Cl)ccc1N,active; multisex active
19,C/C(=C(\CCOC(=O)c1ccccc1)SC(=O)c1ccccc1)N(C=O)Cc1cnc(C)nc1N,inactive; multisex inactive
20,CC(=O)CN(CC(C)=O)N=O,active; multisite active; multisex active
21,CC1CCC(C(C)C)C(O)C1 (configuration not stated),inactive; multisex inactive; multispecies inactive
22,c1ccc2sc(SN3CCOCC3)nc2c1,inactive; multisex inactive
23,CN(C)C(=S)SC(=S)N(C)C,inactive; multisex inactive
